From patent publication US7138361B2, “Herbicidal heterocycles” (E. I. du Pont de Nemours and Company, priority 2000, dated 2006)

Legend:
Type in all cases: in vivo
Sunflower [1] = assay: Test C preemergence; details: Rate 500 g/ha, visual evaluation after 12 to 14 days
[2] = tested on: crabgrass (Digitaria sanguinalis); assay: Test B preemergence
Outline: (§1)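 Visual injury scores, 0 = no effect to 100 = complete control, assigned against controls after 13 to 15 days in the greenhouse. Compounds formulated in non-phytotoxic solvent plus surfactant and applied to soil after planting (pre) or onto foliage of 1- to 4-leaf plants (post).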

[3] = tested on: lambsquarters (Chenopodium album); assay: Test B preemergence
Outline: as §1

[4] = tested on: pigweed (Amaranthus retroflexus); assay: Test B preemergence
Outline: as §1

rice (Oryza saliva) [5] = assay: Test B preemergence
Outline: as §1

[6] = tested on: velvetleaf (Abutilon theophrasti); assay: Test B preemergence
Outline: as §1

[7] = tested on: Surinam grass (Brachiaria decumbens); assay: Test B preemergence
Outline: as §1

[8] = tested on: giant foxtail (Setaria faberii); assay: Test B preemergence
Outline: as §1

corn (Zea mays) = assay: Test B preemergence
Outline: as §1

[9] = tested on: morning glory (Ipomoea hederacea); assay: Test B preemergence
Outline: as §1

[10] = tested on: barnyardgrass (Echinochloa crus-galli); assay: Test B preemergence
Outline: as §1

[11] = tested on: cocklebur (Xanthium strumarium); assay: Test B preemergence
Outline: as §1

Sunflower [12] = assay: Test C preemergence; details: Rate 62 g/ha, scale 0 to 100
[13] = tested on: pigweed (Amaranthus retroflexus); assay: Test C preemergence
Outline: (§2)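 Plants held in greenhouse for 12–14 days post-application are scored by eye against controls on a 0–100 control scale. Application timing: preemergence on sown seed, or postemergence on 2–18 cm plants.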

[14] = tested on: woolly cupgrass (Eriochloa villosa); assay: Test C preemergence
Outline: as §2

Sunflower [15] = assay: Test C preemergence; details: Rate 125 g/ha; scale 0 to 100, 0 no effect, 100 complete control
[16] = tested on: velvetleaf (Abutilon theophrasti); assay: Test C preemergence
Outline: as §2

rice (Oryza saliva) [17] = assay: Test C flooded paddy test; details: for Plant response rating, Rice: scale 0 to 100 (0 no effect, 100 complete control)
Outline: (§3)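 Rice and three paddy weeds were grown to the 2-leaf stage under flooded conditions, then treated and kept in a greenhouse for 12–14 days. Response was rated visually against untreated controls on a 0–100 scale, where 100 is complete control.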

[18] = tested on: duck salad (Heteranthera limosa); assay: Test C flooded paddy test; details: for Plant response rating, Ducksalad: scale 0 to 100 (0 no effect, 100 complete control)
Outline: as §3

[19] = tested on: smallflower flatsedge (Cyperus difformis); assay: Test C flooded paddy test; details: for Plant response rating, Flatsedge: scale 0 to 100 (0 no effect, 100 complete control)
Outline: as §3

[20] = tested on: barnyardgrass (Echinochloa crus-galli); assay: Test C flooded paddy test; details: for Plant response rating, Barnyardgrass: scale 0 to 100 (0 no effect, 100 complete control)
Outline: as §3

Nightshade = assay: Test C preemergence; details: Rate 500 g/ha, visual evaluation after 12 to 14 days
[21] = Preemergence, Rate 500 g/ha, scale 0 to 100, 0 no effect, 100 complete control
[22] = preemergence, Rate 125 g/ha, scale of 0 to 100 where 0 is no effect and 100 is complete control, 13 to 15 days
[23] = Rate 125 g/ha, scale 0 to 100, 0 no effect, 100 complete control
[24] = preemergence, Rate 62 g/ha, scale 0 to 100
[25] = preemergence, Rate 500 g/ha, visual evaluation after 12 to 14 days
[26] = preemergence, Rate 250 g/ha, scale 0 to 100, 0 no effect, 100 complete control
[27] = Flooded Paddy, Rate 500 g/ha, scale 0 to 100, 0 no effect, 100 complete control
[28] = flooded paddy test, Rate 125 g/ha
[29] = flooded paddy test, Rate 250 g/ha
[30] = flooded paddy test, Rate 62 g/ha, visually evaluated after 12 to 14 days, 0 = no effect, 100 = complete control

COc1cc(N2CCC(n3ccc(C(C)C)n3)C2=O)ccc1Br (stereo not drawn) [Compound 140]
Plant response rating (0 to 100), Sunflower (Sunflower [1]): 90
Plant response rating, Crabgrass [2, 21]: 100
Plant response rating, Crabgrass [2, 22]: 100
Plant response rating, Lambsquarters [3, 21]: 100
Plant response rating, Lambsquarters [3, 22]: 100
Plant response rating, Pigweed [4, 21]: 100
Plant response rating, Pigweed [4, 22]: 100
Plant response rating, Rice (rice (Oryza saliva) [5]; [21]): 40
Plant response rating, Rice (rice (Oryza saliva) [5]; [22]): 20
Plant response rating, Velvetleaf [6, 21]: 80
Plant response rating, Velvetleaf [6, 22]: 60
Plant response rating, Surinam grass [7, 21]: 100
Plant response rating, Surinam grass [7, 22]: 100
Plant response rating, Foxtail, Giant [8, 21]: 100
Plant response rating, Foxtail, Giant [8, 22]: 100
Plant response rating, Corn (corn (Zea mays); [21]): 20
Plant response rating, Corn (corn (Zea mays); [22]): 0
Plant response rating, Morningglory [9, 21]: 100
Plant response rating, Morningglory [9, 22]: 0
Plant response rating, Barnyardgrass [10, 21]: 100
Plant response rating, Barnyardgrass [10, 22]: 100
Plant response rating, Cocklebur [11, 21]: 60
Plant response rating, Cocklebur [11, 22]: 20
Plant response rating, Sunflower (Sunflower [12]): 30
Plant response rating, Pigweed [13, 23]: 100
Plant response rating, Pigweed [13, 24]: 100
Plant response rating (0 to 100), Pigweed [13, 25]: 100
Plant response rating, Pigweed [13, 26]: 100
Plant response rating, Cupgrass, Woolly [14, 23]: 100
Plant response rating, Cupgrass, Woolly [14, 24]: 100
Plant response rating (0 to 100), Cupgrass, Woolly [14, 25]: 100
Plant response rating, Cupgrass, Woolly [14, 26]: 100
Plant response rating, Sunflower (Sunflower [15]): 50
Plant response rating, Velvetleaf [16, 23]: 70
Plant response rating, Velvetleaf [16, 24]: 60
Plant response rating (0 to 100), Velvetleaf [16, 25]: 90
Plant response rating, Velvetleaf [16, 26]: 90
Rice plant response rating (rice (Oryza saliva) [17]; [27]): 50
Plant response rating, Rice (rice (Oryza saliva) [17]; [28]): 30
Plant response rating, Rice (rice (Oryza saliva) [17]; [29]): 35
Plant response rating (scale 0 to 100), Rice (rice (Oryza saliva) [17]; [30]): 0
Ducksalad plant response rating [18, 27]: 95
Plant response rating, Ducksalad [18, 28]: 75
Plant response rating, Ducksalad [18, 29]: 95
Plant response rating (scale 0 to 100), Ducksalad [18, 30]: 20
Flatsedge plant response rating [19, 27]: 95
Plant response rating, Flatsedge [19, 28]: 90
Plant response rating, Flatsedge [19, 29]: 95
Plant response rating (scale 0 to 100), Flatsedge [19, 30]: 90
Barnyardgrass plant response rating [20, 27]: 100
Plant response rating, Barnyardgrass [20, 28]: 100
Plant response rating, Barnyardgrass [20, 29]: 100
Plant response rating (scale 0 to 100), Barnyardgrass [20, 30]: 50
Plant response rating (0 to 100), Nightshade (Nightshade): 100
